# Experimental data: US12186332B2, “Methods for overcoming WNT/beta-catenin anti-cancer resistance in leukemia stem cells” (STOWERS INSTITUTE FOR MEDICAL RESEARCH, priority 2019, dated 2025)
# What was measured:
# [1] = test system: BM cells isolated from leukemic double mutants (LSCs, HSPCs); experiment: In vitro treatment of BM cells from leukemic mice; format: cell-based, mouse; conditions: 11, 33 or 100 nM, 72 hours
# Description: Doxorubicin, 0105375, and thioguanosine were added to 11, 33 or 100 nM and cultured for 72 hours and analyzed by flow cytometry for LSCs as in FIGS. 1A-1E. Fold change before and after culture for each population is indicated relative to equivalent vehicle control concentrations.
# Doxorubicin, 0105375, and thioguanosine were added to 11, 33 or 100 nM and cultured for 72 hours and analyzed by flow cytometry for HSPCs as in FIGS. 1A-1E. Fold change before and after culture for each population is indicated relative to equivalent vehicle control concentrations.
# Bone marrow cells from leukemic mice at 8 weeks post-induction were cultured overnight at 5-20×10^4 cells per well in 96-well U-bottom tissue culture plates (Becton, Dickinson and Company; Cat. No. 353077) in HSC expansion media in low O2 conditions as previously described (Perry et al. 2011). Doxorubicin (Sigma; D1515), 0105375 (University of Kansas CMLD compound), or Thioguanosine was mixed with HSC expansion media and added to the cultures to obtain final concentrations of 11, 33, 100 nM. Equivalent amounts of DMSO alone (vehicle control) were added to parallel cultures for comparison. Half-media changes were performed approximately every 24 hours. Cultures were analyzed after 72 hours exposure to the indicated drug.
# [2] = test system: leukemia (T-ALL) in Pten:β-cat^Act mice; experiment: Long-term survival of treated leukemic mice; format: in vivo, mouse
# Description: Treatment schematic and Kaplan-Meier curves of leukemic mice treated as indicated. Red arrow indicates day 0 in survival curve.
# Dashed line indicates day of final [Low]nanoDXR treatment.
# Chemotherapy for the animal model consisted of Nelarabine (Selleck) and Dexamethasone (BioVision) administered daily for 5 days consecutively. 43.4 mg/ml Nelarabine was administered intravenously via the tail vain according to the formula: Body Weight (g)×5=volume to inject (μl), which yielded 217 mg/kg. 2.5 mg/ml Dexamethasone was injected intraperitoneally according to the formula: Body Weight (g)×4=volume to inject (μl), yielding 10 mg/kg. […] [Low] NanoDXR treatment used doxorubicin nanoparticles (Tran et al. 2014) administered as a single IV injection once per week on day 1 relative to above treatments using 0.8 mg/kg. Maintenance [Low] NanoDXR consisted of once per week injections of 0.4 mg/kg. Groups combining Nelarabine with Doxorubicin used a single injection containing both drugs. All drugs were solubilized in 45% (2-Hydroxypropyl)-p-cyclodextrin (HBC) or 0.9% NaCl.
# [3] = test system: CD8^+ T cells; experiment: FACS of peripheral blood CD8+ T cells in leukemic mice; format: in vivo, mouse; conditions: 48 hrs post-treatment
# [4] = test system: HEK-TOP cell lines; experiment: Cell Titer Glo cytotoxicity profile (CTG); conditions: concentration range as worded in the sentence
# Description: Activity of compounds was tested against HEK-TOP cells vs. HEK FOP cells for inhibition of luciferase activity. The cytotoxicity profiles of the compounds were also tested using Cell Titer Glo assay (Promega) on HEK-TOP cell lines.
# [5] = test system: β-catenin binding of the Cd24a gene locus; experiment: ChIP-qPCR in Ctnnb1-3xFlag mouse ES cells; format: cell-based; conditions: 4 hours
# Description: The Ctnnb1-3×Flag mouse ES cell line was provided by Andrew McMahon (University of Southern California) and routinely passaged and maintained on irradiated MEF feeder in conventional ES cell medium supplemented with […] and […] Hygromycin B. Cells were adapted and expanded to serum free 2i culture for experiments. For serum-free 2i culture, ES cells were cultured without serum in the N2B27 medium: neurobasal medium(Invitrogen 21103-049), DMEM/F12 (Invitrogen 10565-018), 0.5×N2 (Invitrogen 17502-048), 0.5×B27 (Invitrogen 17504044), 1×b-mercaptoethanol(Millipore ES-007-E), 2 mM Lglutamine(Invitrogen 25030081), […] non-essential amino acid(NEAA)(SCT 07600), 0.033% BSA(Invitrogen 15260037), […] CHIRON(Tocris 4423), […] PD03 (SCT72184).
# A total of 2×10^7 ES cells were used per ChIP assay. Cells were washed with 1×PBS and crosslinked with 1% paraformaldehyde for 10 min at RT and quenched with 1 ml 2.5M glycine. Cells were washed with cold PBS three times and resuspended in […] lysis buffer (15 mM HEPES at pH 7.5, 140 mM NaCl, 1 mM EDTA, 0.5 mM EGTA, 1% Triton X100, 0.1% sodium deoxycholate, 1% SDS, 0.5% N-lauroylsarcosine). […] ChIP-qPCR was performed with Fast SYBR™ Green Master Mix (Thermo Fisher Scientific 4385612) and analyzed with the Student's t-test.
structure (smiles),measurement,setting,value
"COc1cccc2c1C(=O)c1c(O)c3c(c(O)c1C2=O)C[C@@](O)(C(=O)CO)C[C@@H]3O[C@H]1C[C@H](N)[C@H](O)[C@H](C)O1 [DXR, doxorubicin]",effect on HSPCs relative to vehicle,[1],lower effect
same,effect on LSCs relative to vehicle,[1],significantly reduced
same,survival compared to vehicle alone,[2]; clinical-dose DXR combined with chemotherapy,significantly reduced survival
same,improvement of survival,"[2]; mouse, in vivo",did not
same,CD8+ T cells in peripheral blood,[3]; [Low]DXR,significant increase
same,CD8+ T cells in peripheral blood,[3]; clinical-dose DXR,significant reduction
same,toxicity (CTG),[4],increased toxicity
same,β-catenin binding of the Cd24 promoter region,[5]; high-dose DXR (3 μM),partially reversed
same,β-catenin binding of the Cd24 promoter region,[5]; low-dose DXR (30 nM),essentially abolished
